Measured values reported in patent publication US7244740B2, “Imidazo-pyridine derivatives for use in the treatment of herpes viral infection” (SmithKline Beecham Corporation, priority 2001, dated 2007).

System: HSV-1
Experiment: HSV-1 replication in Vero 76 cells, DNA hybridization capture assay
Format: cell-based, herpes simplex virus 1
Conditions: Human alphaherpesvirus 1; HSV-1 infected Vero 76 cells, MOI=0.001, 40–48 hours incubation, viral DNA detected by hybridization/chemiluminescence
Description: Vero 76 cells were maintained in MEM with Earle's salts, L-glutamine, 8% FBS (Hyclone, A-1111-L) and 100 units/mL Penicillin-100 μg/mL Streptomycin. For assay conditions, FBS was reduced to 2%. Cells are seeded into 96-well tissue culture plates at a density of 5×10^4 cells/well after being incubated for 45 min at 37° C. in the presence of HSV-1 or HSV-2 (MOI=0.001). Test compounds are added to the wells and the plates are incubated at 37° C. for 40–48 hours. Cell lysates are prepared as follows: media was removed and replaced with 150 μL/well 0.2 N NaOH with 1% Igepal CA 630 or NP-40. Plates were incubated up to 14 days at room temperature in a humidified chamber to prevent evaporation.
For the detection probe, a gel-purified, digoxigenin-labeled, 710-bp PCR fragment of the HSV UL-15 sequence was utilized. PCR conditions included 0.5 μM primers, 180 μM dTTP, 20 μM dUTP-digoxigenin (Boehringer Mannheim 1558706), 200 μM each of dATP, dCTP, and dGTP, 1×PCR Buffer II (Perkin Elmer), 2.5 mM MgCl2, 0.025 units/μL of AmpliTaq Gold polymerase (Perkin Elmer), and 5 ng of gel-purified HSV DNA per 100 μL Extension conditions were 10 min at 95° C., followed by 30 cycles of 95° C. for 1 min, 55° C. for 30 sec, and 72° C. for 2 min. The amplification was completed with a 10-min incubation at 72° C. Primers were selected to amplify a 728 bp probe spanning a section of the HSV1 UL15 open reading frame (nucleotides 249–977). Single-stranded transcripts were purified with Promega M13 Wizard kits. The final product was mixed 1:1 with a mixture of 6 M GuSCN, 100 mM EDTA and 200 μg/mL herring sperm DNA and stored at 4° C.
The capture DNA plasmid (HSV UL13 region in pUC) was linearized by cutting with Xba I, denatured for 15 min at 95° C. and diluted immediately into Reacti-Bind DNA Coating Solution (Pierce, 17250, diluted 1:1 with TE buffer, pH 8) at 1 ng/μL 75 μL/well were added to Corning (#3922 or 9690) white 96-well plates and incubated at room temperature for at least 4 hrs before washing twice with 300 μL/well 0.2×SSC/0.05% Tween-20 (SSC/T buffer). The plates were then incubated overnight at room temperature with 150 μL/well 0.2 N NaOH, 1% IGEPAL and 10 μg/mL herring sperm DNA.
Twenty-seven (27) μL of cell lysate was combined with […] of hybridization solution (final concentration: 3M GuSCN, 50 mM EDTA, 100 μg/ml salmon sperm DNA, 5× Denhardt's solution, 0.25×APE, and 5 ng of the digoxigenin-labeled detection probe). APE is 1.5 M NH4-acetate, 0.15 M ammonium phosphate monobasic, and 5 mM EDTA adjusted to pH 6.0. Mineral oil (50 μL) was added to prevent evaporation. The hybridization plates were incubated at 95° C. for 10 minutes to denature the DNA, then incubated at 42° C. overnight. The wells were washed 6× with 300 μL/well SSC/T buffer then incubated with […] anti-digoxigenin-HRP-conjugated antibody (Boehringer Mannheim 1207733, 1:5000 in TE) for 30 min at room temperature. The wells were washed 6× with 300 μL/well with PBS/0.05% Tween-20 before 75 μL/well SuperSignal LBA substrate (Pierce) was added. The plates were incubated at room temperature for 30 minutes and chemiluminescence was measured in a Wallac Victor reader.

IC50 | Structure (SMILES)
3.54 µM | Cc1ccc(-c2nc3c(NC4CCCC4)cccn3c2-c2ccnc(Nc3ccccc3)n2)cc1 [Example 4, 3-(2-Anilino-4-pyrimidinyl)-N-cyclopentyl-2-(4-methylphenyl)imidazo[1,2-α]pyridin-8-amine]
3.52 µM | Cc1ccc(-c2nc3c(Cl)cccn3c2-c2ccnc(Nc3ccccc3)n2)cc1 [Example 3, 4-[8-Chloro-2-(4-methylphenyl)imidazo[1,2-α]pyridin-3-yl]-N-phenylpyrimidin-2-amine]
1.46 µM | COc1cccc(-c2nc3c(Cl)cccn3c2-c2ccnc(Nc3ccccc3)n2)c1 [Example 1, 4-[8-Chloro-2-(3-methoxyphenyl)imidazo[1,2-α]pyridin-3-yl]-N-phenylpyrimidin-2-amine]

Second part, the compound before the results:

Structure (SMILES) | IC50
COc1cccc(-c2nc3c(NC4CCCC4)cccn3c2-c2ccnc(NC3CCCC3)n2)c1 [Example 2, N-Cyclopentyl-3-[2-(cyclopentylamino)-4-pyrimidinyl]-2-(3-methoxyphenyl)imidazo[1,2-α]pyridin-8-amine] | 0.35 µM
O=[N+]([O-])c1cccc(-c2nc3c(Cl)cccn3c2-c2ccnc(Nc3ccc(F)cc3)n2)c1 [Example 5, 4-[8-Chloro-2-(3-nitrophenyl)imidazo[1,2-α]pyridin-3-yl]-N-(4-fluorophenyl)pyrimidin-2-amine] | 2.23 µM
